Source: US11286268B1, “EIF4E-inhibiting compounds and methods” (EFFECTOR THERAPEUTICS, INC., priority 2019, dated 2022)
Where two headings read alike, the source gives them in different places.

Target: recombinant eIF4E (Homo sapiens (Human), UniProt P06730)
Test: Fluorescence polarization competition assay for eIF4E binding potency
Outline: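 Competitive displacement format: compounds compete with a fluorescent m7GDP tracer (20 nM) for 75 nM recombinant eIF4E. Incubation is 30 min at room temperature, protected from light, with 1% DMSO. Polarization read gives IC50 over eight 3-fold concentrations.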

[1] = fluorescence polarization competition, 75 nM recombinant eIF4E, 20 nM EDA-m7GDP-ATTO-550, IC50 class, read-out: elF4E FP
[2] = inhibition of eIF4E/EDA-m7GDP-ATTO-550 binding by 50%, Table 4B calculated values, read-out: IC50
[3] = inhibition of eIF4E/EDA-m7GDP-ATTO-550 binding, calculated IC50 values, Table 4B, read-out: IC50

Sequence of recombinant eIF4E (P06730 whole entry): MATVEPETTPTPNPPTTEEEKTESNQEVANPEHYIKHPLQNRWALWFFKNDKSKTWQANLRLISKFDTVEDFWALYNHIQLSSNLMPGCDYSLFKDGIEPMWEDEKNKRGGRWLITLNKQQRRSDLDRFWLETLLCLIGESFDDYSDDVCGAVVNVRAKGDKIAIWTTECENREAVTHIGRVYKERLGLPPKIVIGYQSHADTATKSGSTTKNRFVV

| IC50 [1] [nM] | IC50 [2] [nM] | IC50 [3] [nM] | Compound |
| --- | --- | --- | --- |
| < 50 | 21.6 |  | Cc1nc2cnc(N3CCN(C4CC4)CC3)c(C#N)c2c(=O)n1CC#Cc1ccc(Cl)cc1-c1ccnc2c(C(=O)O)csc12 [compound 1162] |
| < 50 | 24.8 |  | Cc1nc2cnc(N3CCN(C4CC(F)(F)C4)CC3)c(C#N)c2c(=O)n1CC#Cc1ccc(Cl)cc1-c1ccnc2c(C(=O)O)csc12 [compound 1163] |
| < 50 | 22.3 |  | Cc1nc2cnc(N(C)C3CCN(C4CC(F)(F)C4)CC3)c(C#N)c2c(=O)n1CC#Cc1ccc(Cl)cc1-c1ccnc2c(C(=O)O)csc12 [compound 1165] |
| < 50 | 28.6 |  | Cc1nc2cnc(N(C)C3CCN(C4CCC4(F)F)CC3)c(C#N)c2c(=O)n1CC#Cc1ccc(Cl)cc1-c1ccnc2c(C(=O)O)csc12 (stereo not shown) [compound 1166] |
| < 50 | 17.3 |  | Cc1nc2cnc(N3CCN(CC4(F)CC4)CC3)c(C#N)c2c(=O)n1CC#Cc1ccc(Cl)cc1-c1ccnc2c(C(=O)O)csc12 [compound 1167] |
| < 50 | 15.3 |  | Cc1nc2cnc(N(C)C3CCN(CC4(F)CC4)CC3)c(C#N)c2c(=O)n1CC#Cc1ccc(Cl)cc1-c1ccnc2c(C(=O)O)csc12 [compound 1169] |
| < 50 | 17.1 |  | Cc1nc2cnc(N(C)C3CCN(CCOC(F)(F)F)CC3)c(C#N)c2c(=O)n1CC#Cc1ccc(Cl)cc1-c1ccnc2c(C(=O)O)csc12 [compound 1170] |
| < 50 | 13 |  | Cc1nc2cnc(N(C)C3CCN(C4CC4)CC3)c(C#N)c2c(=O)n1CC#Cc1ccc(Cl)cc1-c1ccnc2c(C(=O)O)csc12 [compound 1171] |
| < 50 | 14.2 |  | Cc1nc2cnc(N(C)C3CCN([C@H]4C[C@@H](OC(F)F)C4)CC3)c(C#N)c2c(=O)n1CC#Cc1ccc(Cl)cc1-c1ccnc2c(C(=O)O)csc12 [compound 1172] |
| < 50 | 9.32 |  | Cc1nc2cnc(N(C)C3CCN(CC4(F)CCC4)CC3)c(C#N)c2c(=O)n1CC#Cc1ccc(Cl)cc1-c1ccnc2c(C(=O)O)csc12 [compound 1174] |
| < 50 | 34.3 |  | CCN(c1ncc2nc(C)n(CC#Cc3ccc(Cl)cc3-c3ccnc4c(C(=O)O)csc34)c(=O)c2c1C#N)C1CCN(CC(F)(F)F)CC1 [compound 1176] |
| < 50 | 34.2 |  | CCN(c1ncc2nc(C)n(CC#Cc3ccc(Cl)cc3-c3ccnc4c(C(=O)O)csc34)c(=O)c2c1C#N)C1CCN(CC(C)(F)F)CC1 [compound 1177] |
| < 50 |  |  | Cc1nc2cnc(N3CCC(N4CCC(F)(F)CC4)CC3)c(C#N)c2c(=O)n1CC#Cc1ccc(Cl)cc1-c1ccnc2c(C(=O)O)csc12 [compound 1180] |
| < 50 | 13.7 |  | Cc1nc2cnc(N(C)C3CCN(C4CC(F)C4)CC3)c(C#N)c2c(=O)n1CC#Cc1ccc(Cl)cc1-c1ccnc2c(C(=O)O)csc12 (stereo not shown) [compound 1181] |
| < 50 | 13.6 |  | Cc1nc2cnc(N(C)C3CCN(C4(C(F)F)COC4)CC3)c(C#N)c2c(=O)n1CC#Cc1ccc(Cl)cc1-c1ccnc2c(C(=O)O)csc12 [compound 1182] |
| < 50 | 23.2 |  | Cc1nc2cnc(N(C)C3CCN(CC(C)(F)F)CC3)c(C#N)c2c(=O)n1CC#Cc1ccc(Cl)cc1-c1ccnc2c(C(=O)NS(=O)(=O)C3COC3)csc12 [compound 1183] |
| < 50 | 9.32 |  | CCN(c1ncc2nc(C)n(CC#Cc3ccc(Cl)cc3-c3ccnc4c(C(=O)O)csc34)c(=O)c2c1C#N)C1CCN(C2CC(F)(F)C2)CC1 [compound 1184] |
| < 50 | 17.6 |  | Cc1nc2cnc(N(C)C3CCN(CC4(F)COC4)CC3)c(C#N)c2c(=O)n1CC#Cc1ccc(Cl)cc1-c1ccnc2c(C(=O)O)csc12 [compound 1185] |
| < 50 | 20.1 |  | CCN(c1ncc2nc(C)n(CC#Cc3ccc(Cl)cc3-c3ccnc4c(C(=O)O)csc34)c(=O)c2c1C#N)C1CCN(C2COC2)CC1 [compound 1186] |
| < 50 |  | 13.4 | Cc1nc2cnc(N(C)C3CCN(CC4CC(OC(F)F)C4)CC3)c(C#N)c2c(=O)n1CC#Cc1ccc(Cl)cc1-c1ccnc2c(C(=O)O)csc12 (stereo not shown) [compound 1189] |
| < 50 |  | 7.3 | Cc1nc2cnc(N(C)C3CCN(CCC(C)(F)F)CC3)c(C#N)c2c(=O)n1CC#Cc1ccc(Cl)cc1-c1ccnc2c(C(=O)O)csc12 [compound 1190] |
| < 50 |  | 12.8 | CCN(c1ncc2nc(C)n(CC#Cc3ccc(Cl)cc3-c3ccnc4c(C(=O)O)csc34)c(=O)c2c1C#N)C1CCN(CC(F)(F)C(F)F)CC1 [compound 1191] |
| < 50 |  | 13.1 | COC(=O)c1csc2c(-c3cc(Cl)ccc3C#CCn3c(C)nc4cnc(N(C)C5CCN(CC(F)(F)F)CC5)c(C#N)c4c3=O)ccnc12 [compound 1195] |

Continued, compound first:

| Compound | IC50 [1] [nM] | IC50 [2] [nM] | IC50 [3] [nM] |
| --- | --- | --- | --- |
| Cc1nc2cnc(N(C)C3CCN(CC(C)(F)F)CC3)c(C#N)c2c(=O)n1CC#Cc1ccc(Cl)cc1-c1ccnc2c(C(=O)NS(=O)(=O)c3ccccn3)csc12 [compound 1146] | < 50 | 14.4 |  |
| Cc1nc2cccc(C#N)c2c(=O)n1CCOc1ccc(Cl)cc1-c1cccc(C(=O)O)c1 [compound 1147] | < 50 | 44.6 |  |
| Cc1nc(-c2ccccc2C(F)(F)F)c(C#N)c2c(=O)n(CCOc3ccc(Cl)cc3-c3ccnc4c(C(=O)O)csc34)c(C)nc12 [compound 1148] | < 50 | 35.6 |  |
| Cc1cc(-c2cc(Cl)ccc2OCCn2c(C)nc3c(C)nc(N4CCC(O)C4)c(C#N)c3c2=O)c2scc(C(=O)O)c2n1 (stereo not shown) [compound 1149] | < 50 | 4.19 |  |
| Cc1cc(-c2cc(Cl)ccc2OCCn2c(C)nc3cc(S(C)(=O)=O)c(N4CCN(C)CC4)c(C#N)c3c2=O)c2sc(C)c(C(=O)O)c2n1 [compound 1150] | < 50 | 4.6 |  |
| Cc1nc2cc(C(F)(F)F)c(N3CCN(C)CC3)c(C#N)c2c(=O)n1CCOc1ccc(Cl)cc1-c1ccnc2c(C(=O)NS(C)(=O)=O)csc12 [compound 1151] | < 50 | 19 |  |
| CO[C@H]1C[C@@H](c2ncc3nc(C)n(CCOc4ccc(Cl)cc4-c4cc(C)nc5c(C(=O)O)csc45)c(=O)c3c2C#N)C1 [compound 1152] | < 50 | 3.8 |  |
| Cc1nc2cc(C(F)(F)F)c(OCC(F)(F)F)c(C#N)c2c(=O)n1CCOc1ccc(Cl)cc1-c1ccnc2c(C(=O)O)csc12 [compound 1153] | < 50 | 38 |  |
| Cc1nc2cc(C(F)(F)F)c(N3CCN(C)CC3)c(C#N)c2c(=O)n1CC#Cc1ccc(Cl)cc1-c1cccc(C(=O)O)c1 [compound 1154] | < 50 | 14 |  |
| Cc1nc2cc(C(F)(F)F)c(N3CCN(C)CC3)nc2c(=O)n1CCOc1ccc(Cl)cc1-c1ccnc2c(C(=O)NS(C)(=O)=O)csc12 [compound 1155] | < 50 | 18.1 |  |
| Cc1nc2cc(C(F)(F)F)c(N3CCN(CCC(F)(F)F)CC3)c(C#N)c2c(=O)n1CCCc1ccc(Cl)cc1-c1ccnc2c(C(=O)O)csc12 [compound 1156] | < 50 | 35.1 |  |
| Cc1nc2cnc(N(C)C3CCN(CC(F)(F)F)CC3)c(C#N)c2c(=O)n1CCOc1ccc(Cl)cc1-c1ccnc2c(C(=O)NS(C)(=O)=O)csc12 [compound 1157] | < 50 | 22 |  |
| Cc1nc2cc(C(F)(F)F)c(N3CC4(C3)CN(C3CC3)C4)c(C#N)c2c(=O)n1CCCc1ccc(Cl)cc1-c1ccnc2c(C(=O)O)csc12 [compound 1158] | < 50 | 15.8 |  |
| Cc1nc2cnc(N3CCN(CCC(F)(F)F)CC3)c(C#N)c2c(=O)n1CC#Cc1ccc(Cl)cc1-c1ccnc2c(C(=O)O)csc12 [compound 1160] | < 50 | 17.2 |  |
| Cc1nc2cnc(N3CCN(CCOC(F)(F)F)CC3)c(C#N)c2c(=O)n1CC#Cc1ccc(Cl)cc1-c1ccnc2c(C(=O)O)csc12 [compound 1161] | < 50 | 19.5 |  |
| Cc1nc2cnc(N3CCN(CC(C)(F)CF)CC3)c(C#N)c2c(=O)n1CCOc1ccc(Cl)cc1-c1ccnc2c(C(=O)O)csc12 (stereo not shown) [compound 1164] | < 50 | 26.7 |  |
| CCC(F)(F)CN1CCC(N(C)c2ncc3nc(C)n(COCc4ccc(Cl)cc4-c4ccnc5c(C(=O)O)csc45)c(=O)c3c2C#N)CC1 [compound 1168] | < 50 | 13 |  |
| Cc1nc2cnc(N(C)C3CCN([C@@H]4C[C@H]4C(F)(F)F)CC3)c(C#N)c2c(=O)n1CC#Cc1ccc(Cl)cc1-c1ccnc2c(C(=O)O)csc12 [compound 1175] | < 50 | 22.1 |  |
| CC(=O)c1csc2c(-c3cc(Cl)ccc3C#CCn3c(C)nc4cc(C(F)(F)F)c(N5CC6(C5)CN(C5CC5)C6)c(C#N)c4c3=O)ccnc12 [compound 1178] | < 50 | 22.9 |  |
| Cc1nc2cc(C(F)(F)F)c(N3CCN(C4CC4)CC3)c(C#N)c2c(=O)n1CCOc1ccc(Cl)cc1-c1ccnc2c(C(=O)NS(C)(=O)=O)csc12 [compound 1179] | < 50 | 14.7 |  |
| Cc1nc2cnc(N3CCC(N4CC(OC(F)F)C4)CC3)c(C#N)c2c(=O)n1CC#Cc1ccc(Cl)cc1-c1ccnc2c(C(=O)O)csc12 [compound 1187] | < 50 |  |  |
| Cc1cc(-c2cc(Cl)ccc2OCCn2c(C)nc3cc(C(F)(F)F)c(-c4ccnc5c4CCN5)c(C#N)c3c2=O)c2scc(C(=O)O)c2n1 [compound 1192] | < 50 |  | 48.8 |
| Cc1cc(-c2cc(Cl)ccc2OCCn2c(C)nc3c(=O)n(C)c(-c4ccccc4)c(C#N)c3c2=O)c2scc(C(=O)O)c2n1 [compound 1193] | < 50 |  |  |
| Cc1cc(-c2cc(Cl)ccc2OCCn2c(C)nc3cnc([C@H]4C[C@@H](O)C4)c(C#N)c3c2=O)c2scc(C(=O)O)c2n1 [compound 1194] | < 50 |  | 15.3 |
